Data as given in ChEMBL document CHEMBL1154016, “An efficient synthesis and biological study of novel indolyl-1,3,4-oxadiazoles as potent anticancer agents” (Bioorg Med Chem Lett, 2009).

Tests used:
PC-3 = assay: Cytotoxicity against human PC3 cells by MTT assay; type: functional, cell-based
DU-145 = assay: Cytotoxicity against human DU145 cells by MTT assay; type: functional, cell-based
LNCaP = assay: Cytotoxicity against human LNCAP cells by MTT assay; type: functional, cell-based
MDA-MB-231 = assay: Cytotoxicity against human MDA-MB-231 cells by MTT assay; type: functional, cell-based
MCF7 [1] = assay: Cytotoxicity against human MCF7 cells by MTT assay; type: functional, cell-based
MIA PaCa-2 = assay: Cytotoxicity against human MIAPaCa2 cells by MTT assay; type: functional, cell-based
MCF7 [2] = assay: Selectivity ratio of IC50 for human MIAPaCa2 cells to IC50 for human MCF7 cells; type: functional

Structure (SMILES)	IC50 (PC-3)	IC50 (DU-145)	IC50 (LNCaP)	IC50 (MDA-MB-231)	IC50 (MCF7 [1])	IC50 (MIA PaCa-2)	Ratio IC50 (MCF7 [2])
Clc1ccc(-c2nnc(-c3c[nH]c4ccccc34)o2)cc1	41.6 µM	192 µM	583 µM	> 1000 µM	48.2 µM	6460 µM	–
COc1cc(-c2nnc(-c3c[nH]c4ccccc34)o2)ccc1OCc1ccccc1	> 1000 µM	> 1000 µM	> 1000 µM	> 1000 µM	> 1000 µM	> 1000 µM	–
c1ccc(-c2nnc(-c3c[nH]c4ccccc34)o2)cc1	> 1000 µM	> 1000 µM	> 1000 µM	> 1000 µM	388 µM	> 1000 µM	–
COc1ccc(-c2nnc(-c3c[nH]c4ccccc34)o2)cc1	> 1000 µM	> 1000 µM	> 1000 µM	> 1000 µM	> 1000 µM	> 1000 µM	–
COc1cc(-c2nnc(-c3c[nH]c4ccccc34)o2)ccc1O	> 1000 µM	> 1000 µM	> 1000 µM	> 1000 µM	> 1000 µM	> 1000 µM	–
c1ccc2c(-c3nnc(-c4ccncc4)o3)c[nH]c2c1	4.1 µM	20.4 µM	10 µM	> 1000 µM	1 µM	1.6 µM	–
Cc1nnc(-c2c[nH]c3ccccc23)o1	> 1000 µM	> 1000 µM	> 1000 µM	> 1000 µM	198 µM	145 µM	–
COc1ccc(-c2nnc(-c3c[nH]c4ccccc34)o2)c(OC)c1OC	> 1000 µM	> 1000 µM	> 1000 µM	> 1000 µM	121 µM	> 1000 µM	–
FC(F)(F)c1nnc(-c2c[nH]c3ccccc23)o1	> 1000 µM	> 1000 µM	> 1000 µM	> 1000 µM	> 1000 µM	> 1000 µM	–
c1cncc(-c2nnc(-c3c[nH]c4ccccc34)o2)c1	711 µM	170 µM	69.4 µM	> 1000 µM	5.4 µM	0.9 µM	–
c1ccc(Cc2nnc(-c3c[nH]c4ccccc34)o2)cc1	> 1000 µM	> 1000 µM	> 1000 µM	> 1000 µM	39.2 µM	934 µM	24
COc1ccc(-c2nnc(-c3c[nH]c4ccccc34)o2)cc1OC	> 1000 µM	> 1000 µM	> 1000 µM	> 1000 µM	557 µM	> 1000 µM	–
COc1cc(-c2nnc(-c3cn(C)c4ccccc34)o2)ccc1OCc1ccccc1	> 1000 µM	> 1000 µM	> 1000 µM	> 1000 µM	35.2 µM	1.4 µM	–
